# Data from patent publication US8227506B2, “Benzamidine compound” (Ajinomoto., Inc., priority 2005, dated 2012).
# Key:
# [1] = Evaluation of stability in plasma; type: in vitro ADME; details: disappearance half-life in human plasma, 37° C., final drug concentration 10 μM, HPLC
# Experimental: Evaluation of Stability in Plasma
# A […] solution (5 μl) of the test compound was added to human plasma (495 μl) (final drug concentration, 10 μM), and the mixture was incubated at 37° C. Samples (each 50 μl) were taken at 0 minutes, 3 minutes, 10 minutes, and 20 minutes after addition of the drug solution, diluted with distilled water (50 μl), and the reaction was quenched by adding 100% acetonitrile (300 μl) and blending them. After deproteinization by centrifugation at 15000 rpm for 5 minutes, the mixture was concentrated to dryness by a centrifugal evaporator. The sample was dissolved in 120 μl of 0.1% aqueous TFA, the peak area or height of the test compound was calculated by HPLC, and the disappearance half-life was determined.
# [2] = target: activated factor IIa (thrombin) (Homo sapiens, UniProt P00734); experiment: Determination of activated factor II (FIIa, thrombin)-inhibitory activity (chromogenic substrate S-2238); type: biochemical; details: negative logarithm of the concentration suppressing 50% of the reaction rate of the control, 0.125 U/ml thrombin
# Experimental: Determination of Activated Factor II (FIIa, Thrombin)-Inhibitory Activity
# (§1) Using a 96 well plate (#3396, Costar), 0.125 U/ml activated factor IIa (thrombin) (10 μL) and a test compound (10 μL) were blended with 100 mM Tris-HCl buffer (130 μL) containing 0.02% Tween 20, 0.1% PEG6000 and 0.2 M NaCl for 10 minutes, and a substrate for color development (0.1 mM S-2238 50 μL) was added thereto. Using a Microplate reader Benchmark Plus (BIO-RAD), the reaction rate was measured from the time course changes at absorbance 405 nm. The reaction rate of the control was taken as 100% and the negative logarithm of the concentration capable of suppressing 50% of the reaction rate of the control was taken as the pIC50 value.
# [3] = target: FXa (Homo sapiens, UniProt P00742); experiment: Determination of activated factor X activity-inhibitory activity (chromogenic substrate S-2222); type: biochemical; details: negative logarithm of the concentration suppressing 50% of the reaction rate of the control, 0.015 U/ml FXa
# Experimental: Determination of Activated Factor X Activity-Inhibitory Activity
# as §1, with “0.015” for “0.125”, “FXa” for “activated factor IIa (thrombin)”, “(0.2” for “(0.1”, “S-2222” for “S-2238”
# [4] = system: human plasma; experiment: Determination of anticoagulant activity (aPTT measurement method); details: negative logarithm of the concentration prolonging the aPTT of the control to two-fold
# Experimental: Determination of Anticoagulant Activity
# The aPTT measurement method using an automatic blood coagulation time measuring device, Sysmex CA-3000 (TOA Medical Electronics Co., Ltd.) was performed. A solution (5 μl) of the test compound was placed in a sample tube (SU-40, TOA Medical Electronics Co., Ltd.), human plasma (hemolyance coagulation control I, iatron Laboratory, 45 μl) was added and the mixture was incubated at 37° C. for 3 minutes. To the plasma solution were added dataphay•APTT (rabbit brain-derived cephalin, DADE Behring Co., Ltd., 50 μl) and 0.02 M calcium chloride (50 μl), and the time up to the coagulation of plasma was automatically measured. The anticoagulation activity is shown as the negative logarithm of the concentration prolonging the aPTT of the control to two-fold (paPTT2).
# [5] = system: dog dialysis model; experiment: Evaluation of dog dialysis model; type: in vivo, dog (Beagles)
# Experimental: Evaluation of Dog Dialysis Model
# Beagles (♂, 11 kg-15 kg, Nosan Corp., Japan) were anesthetized with pentobarbital (30 mg/kg, Tokyo Chemical Industry Co., Ltd.) by intravenous administration from the cephalic vein of the forefoot. A tracheostomy tube was inserted and artificial breathing was started. Placing needles [14G (serflow placing needle, Termo Corp.), 16G (happycath, Medikit Co., Led), 18G (serflow placing needle, Termo Corp.)] were punctured into the left femoral vein, right femoral artery, and right cephalic vein of the forefoot, respectively, and an outer shunt (Senko Medical Instrument Mfg. CO., Ltd.) filled with saline was set to the femoral vein and artery. For hemodialysis, a hemodialysis device for one person (DBG-01, Nikkiso Co., Ltd.), a hollow fiber dialyzer (FB-50, triacetate (CTA) film, Nipro Corp.) and sodium bicarbonate dialysate (AK-sorita•DL, Shimizu Corp.) were used.
# The experiment was performed under the conditions of blood flow 80 ml/minute, dialysate flow 300 ml/minute, water removal amount 0 ml/minute. During dialysis, pentobarbital (12 mg/kg/hour) was continuously administered from the cephalic vein of the forefoot to maintain anesthesia. The control and test compounds were continuously administered into the arterial blood circuit (B) at 5 ml/hour. […]
# FXa, sequence (P00742 235-488 limits assumed): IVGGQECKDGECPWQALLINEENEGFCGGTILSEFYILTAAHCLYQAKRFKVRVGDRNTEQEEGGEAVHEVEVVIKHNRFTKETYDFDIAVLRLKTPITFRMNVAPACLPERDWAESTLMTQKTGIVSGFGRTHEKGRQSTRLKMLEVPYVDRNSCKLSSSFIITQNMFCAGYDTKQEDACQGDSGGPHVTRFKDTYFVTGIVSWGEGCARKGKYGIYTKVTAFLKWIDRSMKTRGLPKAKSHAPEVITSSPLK
# FXa, sequence (P00742 41-179 partner limits assumed): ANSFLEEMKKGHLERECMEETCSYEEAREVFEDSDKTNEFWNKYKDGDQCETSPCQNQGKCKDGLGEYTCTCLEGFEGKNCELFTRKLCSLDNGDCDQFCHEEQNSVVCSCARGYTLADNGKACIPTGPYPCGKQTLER
SMILES,half-life at 10 μM [1],IC50 [2],IC50 [3],"bleeding time ([5]; Template method, 2 hour after the start of the administration, versus control (FIG. 2))",paPTT2 [4],dialysis time ([5]; up to arterial circuit pressure 300 mmHg or 4 hours after the start of the dialysis (FIG. 1))
"N=C(N)c1ccc(O)c(OCCOC(=O)c2ccc(C(=N)N3CCCC3)cc2)c1 [Ex. 6, 2-{5-amidino-2-hydroxyphenoxy}ethyl 4-[imino(pyrrolidin-1-yl)methyl]benzoate ditrifluoroacetate]",1.6 min,79400 nM,3.16 nM,–,6,–
"N=C(N)c1ccc(OCCO)c(OCCOC(=O)c2ccc(C(=N)N3CCCC3)cc2)c1 [Ex. 13, 2-[5-amidino-2-(2-hydroxyethoxy)phenoxy]ethyl 4-[imino(pyrrolidin-1-yl)methyl]benzoate ditrifluoroacetate]",2.7 min,63100 nM,15.8 nM,–,6.4,–
"CC(=N)N1CCC(Oc2ccc(C(=O)OCCOc3cccc(C(=N)N)c3)cc2)CC1 [Ex. 16, 2-{3-amidinophenoxy}ethyl 4-[(1-(1-iminoethyl)piperidin-4-yl)oxy]benzoate ditrifluoroacetate]",1.7 min,> 100000 nM,63.1 nM,–,5.4,–
"N=C(N)c1cccc(OCCOC(=O)c2ccc(OC3CCN(C(=N)N)CC3)cc2)c1 [Ex. 17, 2-{3-amidinophenoxy}ethyl 4-({1-amidinopiperidin-4-yl}oxy)benzoate ditrifluoroacetate]",5.6 min,> 100000 nM,63.1 nM,–,–,–
"CC(C)COc1ccc(C(=N)N)cc1OCCOC(=O)c1ccc(C(=N)N2CCCC2)cc1 [Ex. 24, 2-{5-amidino-2-isobutoxyphenoxy}ethyl 4-[imino(pyrrolidin-1-yl)methyl]benzoate ditrifluoroacetate]",0.7 min,12600 nM,39.8 nM,–,–,–
"CC(=O)Oc1ccc(C(=N)N)cc1OCCOC(=O)c1ccc(C(=N)N2CCCC2)cc1 [Ex. 28, 2-{2-(acetoxy)-5-amidinophenoxy}ethyl 4-[imino(pyrrolidin-1-yl)methyl]benzoate ditrifluoroacetate]",3.5 min,1580 nM,3.98 nM,–,–,–

# Continued, in another order:
half-life at 10 μM [1],IC50 [2],IC50 [3],"bleeding time ([5]; Template method, 2 hour after the start of the administration, versus control (FIG. 2))",SMILES,paPTT2 [4],dialysis time ([5]; up to arterial circuit pressure 300 mmHg or 4 hours after the start of the dialysis (FIG. 1))
1.1 min,> 100000 nM,251 nM,–,"COc1ccc(C(=N)N)cc1OCCOC(=O)c1ccc(C(=N)N2CCCC2)cc1 [Ex. 18, 2-{5-amidino-2-methoxyphenoxy}ethyl 4-[imino(pyrrolidin-1-yl)methyl]benzoate ditrifluoroacetate]",5.2,–
2.1 min,6310 nM,12.6 nM,of the same level as the control,"N#CCOc1ccc(C(=N)N)cc1OCCOC(=O)c1ccc(C(=N)N2CCCC2)cc1 [Ex. 20, 2-[5-amidino-2-(cyanomethoxy)phenoxy]ethyl 4-[imino(pyrrolidin-1-yl)methyl]benzoate ditrifluoroacetate]",–,4 h
–,> 100000 nM,200 nM,–,"N=C(N)c1cccc(OCCOC(=O)c2ccc(C(=N)N3CCCC3)nc2)c1 [Ex. 37, 2-(3-amidinophenoxy)ethyl 6-[imino(pyrrolidin-1-yl)methyl]nicotinate tritrifluoroacetate]",5.2,–
